Measured values taken from paper PMC8959600 (eLife, 2022).

Tested on: Campylobacter jejuni
Assay: MIC by micro dilution, clinical Campylobacter isolates from Vietnam
Format: cell-based
Details: 75 Campylobacter jejuni from diarrhoeal cases in Vietnam; read-out: median MIC
Text: Selected compounds, including Tebipenem, were profiled against a panel of […] clinical isolates of enteric pathogens comprised of Shigella (Vietnam and Kenya; n = 135), non-typhoidal Salmonella (Vietnam; n = 117), Campylobacter (Vietnam; n = 75), and various pathogenic E. coli species (Vietnam; n = 7) ([Butcher et al., 2014]). The antimicrobial susceptibility profile of these organisms is described in Supplementary file 1.
Compound screening and dose response assays have been described previously ([Van Voorhis et al., 2016]; [Wiegand et al., 2008]). Briefly, the selected bacteria were cultured on the Luria-Bertani agar overnight at 37 °C (Campylobacter isolates were grown in 2.5% Laked Horse Blood cation-adjusted Mueller Hinton medium (CAMHB, Sigma Aldrich) and incubated in microaerophilic conditions (10% CO2, 5% O2 and 85% N2) at 42 °C); colonies were added to sterile PBS to form 0.5 McFarland solutions. […] The activity of the chemical was recorded as being active (yes) or non-active (no) for each of the tested chemicals. A non-active result was recorded when there was no evidence of bacterial inhibition, and the culture area was indistinguishable from the negative control.
MICs were evaluated using the micro dilution assay in Müller Hinton broth using 1 mM chemical stock solutions, and a final concentration of 5 × 10^5 CFU/mL bacteria. […]

Work on C[C@@H](O)[C@H]1C(=O)N2C(C(=O)O)=C(SC3CN(C4=NCCS4)C3)[C@H](C)[C@H]12 [Tebipenem] yielded an MIC of under 0.1 µM.
